We go through 21 molecules from ChEMBL document CHEMBL1201862, “PubChem BioAssay data set” (2004).

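Grown in 96-well plates, cells were treated for 48 hours with each compound at five concentrations. Insufficient inhibition: endpoint recorded as highest concentration tested. Here, GI50 denotes the concentration required for 50% inhibition of growth.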 Activity calls are given as the source filed them. No stated cut-off is given here; in the data, active = GI50 up to about 1.1 µM and inactive = higher. Where only a bound is given, the exact number is not on record here.

Among the test systems are DMS-273; KM-20L2; LXFL 529; SNB-78; DMS-114; XF498; DLD-1; RXF 631; HOP-18.
What all share (assay): NCI-60 cell line screen, 48 h

`Cn1c(=O)c(NC(=O)C(Cl)(Cl)Cl)nc2ccccc21`: the GI50 in the test with DMS-273, in the test on KM-20L2, in the test on LXFL 529, with SNB-78, in the test with DMS-114 and in the test on XF498 was > 100 µM (inactive) throughout. Further, the GI50 with DLD-1 and in the test with RXF 631 was > 100 µM (inactive) throughout.
For `CN(C)CCNC(=O)c1cccc2ccc(-c3cccnc3)nc12`, the GI50 is 3.35 µM (inactive) with DMS-273; 7.11 µM (inactive) in the test on SNB-78; 6.52 µM (inactive) in the test with DMS-114; 13.7 µM (inactive) with HOP-18; 4.41 µM (inactive) in the test on DLD-1; 3.48 µM (inactive) in the test with RXF 631.
For `NC(=O)NC(=O)C1CCC(=O)N1S(=O)(=O)c1ccc(Cl)cc1` (stereo unspecified), the GI50 with KM-20L2, with LXFL 529, in the test on DMS-114, with HOP-18, in the test on XF498 and with DLD-1 was > 100 µM (inactive) each time. Further, the GI50 in the test on RXF 631 is > 100 µM (inactive).
Consider `O=C1N2Cc3c4ccc5c3CN3C(=O)N6Cc7c(ccc(c7CN1C6(c1ccccc1)C23c1ccccc1)OCCOCCOc1cc(Br)c(Br)cc1OCCOCCO4)OCCOCCOc1cc(Br)c(Br)cc1OCCOCCO5` (stereo unspecified), for which the GI50 was > 100 µM (inactive) in the test with DMS-273; > 100 µM (inactive) with KM-20L2; 67.3 µM (inactive) with LXFL 529; > 100 µM (inactive) in the test with SNB-78; 41.2 µM (inactive) in the test with DMS-114; > 100 µM (inactive) in the test with HOP-18. For the same molecule, the values for the GI50 with DLD-1 and with RXF 631 were 20.2 µM (inactive) and > 100 µM (inactive), respectively.
For the molecule `CC(=O)OCC1OC(N2C(=O)/C(=N\NC(N)=S)c3ccc([N+](=O)[O-])cc32)C(OC(C)=O)C1OC(C)=O` (stereo unspecified), the GI50 in the test on DMS-273 is 17.4 µM (inactive); in the test on KM-20L2, 31.5 µM (inactive); in the test on LXFL 529, 50 µM (inactive); in the test on SNB-78, 33.3 µM (inactive); in the test on DMS-114, 23.1 µM (inactive); with HOP-18 it was > 100 µM (inactive). In addition, the GI50 was 29.9 µM (inactive) in the test with XF498 and 29.6 µM (inactive) with DLD-1.
Turning to `C=CCN1C(=O)CS/C1=N\NC(=O)c1c(C)nc2sccn12`, the GI50 with DMS-273, in the test on KM-20L2, in the test on LXFL 529, in the test on DMS-114, in the test with HOP-18 and in the test with XF498 was > 100 µM (inactive) each time. Also, the GI50 in the test on DLD-1 and in the test on RXF 631 was > 100 µM (inactive) throughout.
Regarding `CCNC(=O)/C=C/CCC#Cc1ccc(-c2ccc(-c3cccs3)s2)s1`, the GI50 is > 100 µM (inactive) with DMS-273; > 100 µM (inactive) with KM-20L2; > 100 µM (inactive) in the test with LXFL 529; > 100 µM (inactive) in the test on SNB-78; > 100 µM (inactive) in the test with DMS-114; 4.82 µM (inactive) in the test with HOP-18. Further, the figures for the GI50 with XF498 and in the test with DLD-1 were 2.71 µM (inactive) and > 100 µM (inactive), respectively.
As to `COc1cc2cc[n+](C)c(Cc3ccccc3)c2cc1OC`, the GI50 in the test with DMS-273 is > 100 µM (inactive); in the test with KM-20L2, > 100 µM (inactive); in the test on LXFL 529, > 100 µM (inactive); in the test with SNB-78 it was > 100 µM (inactive); in the test with DMS-114, 79.6 µM (inactive); in the test on HOP-18 it was > 100 µM (inactive).
Take `CSc1n/c(=N\c2ccccc2)sn1-c1ccccc1`: the GI50 with DMS-273 is 8.83 µM (inactive); in the test on KM-20L2 it was 13.6 µM (inactive); with SNB-78 it was 20.7 µM (inactive); in the test on DMS-114, 3.15 µM (inactive).
Regarding `COC(=O)c1ccccc1NC(=O)C(=O)CC(=O)c1ccccc1NC1=CC(=O)C(=O)c2ccccc21`, the GI50 in the test with DMS-273 was 10.7 µM (inactive); in the test with KM-20L2, 72.9 µM (inactive); in the test with LXFL 529, 5.09 µM (inactive); in the test on SNB-78, 7.66 µM (inactive); in the test with DMS-114 it was 1.71 µM (inactive); in the test on HOP-18, 7.59 µM (inactive). The GI50 with XF498 is 15.6 µM (inactive); in the test on DLD-1 it was 4.57 µM (inactive); in the test with RXF 631, 26.5 µM (inactive).
`CCOC(=O)/C(O)=C/c1cc(OC)cc(=O)o1`: the GI50 in the test on DMS-273, in the test on KM-20L2, in the test on LXFL 529, in the test with SNB-78, with DMS-114 and with HOP-18 was > 100 µM (inactive) in each case. The GI50 in the test with DLD-1 was > 100 µM (inactive).
On to `c1ccc2c(NCCCCCCCCNc3c4ccccc4nc4ccccc34)c3ccccc3nc2c1`, for which the GI50 with DMS-273 is 0.043 µM (active); in the test on KM-20L2, 0.354 µM (active); with LXFL 529, 0.213 µM (active); in the test on SNB-78, 1.01 µM (active); with DMS-114, 1.01 µM (active); with HOP-18, 1.76 µM (inactive). Also, the GI50 with XF498 is 1.04 µM (active); in the test on DLD-1, 0.143 µM (active); in the test on RXF 631 it was 0.178 µM (active).
On to `Cc1ccc([N+](=O)[O-])cc1NC(=O)c1cccc([N+](=O)[O-])c1O`, for which the GI50 in the test with DMS-273 was 11.9 µM (inactive); in the test on KM-20L2, 25.5 µM (inactive); in the test on LXFL 529, 19.1 µM (inactive); with SNB-78 it was 20.8 µM (inactive); in the test with DMS-114, 8.73 µM (inactive); with XF498 it was 18.2 µM (inactive). Moreover, in the test with DLD-1, the GI50 is 20.7 µM (inactive).
Consider `CC1=C(C(=O)Nc2cc(F)c(F)cc2F)C(c2ccc(N(C)C)cc2)C(C(=O)Nc2cc(F)c(F)cc2F)=C(C)N1`, for which the GI50 in the test with DMS-273 is 26.9 µM (inactive); with KM-20L2, 34 µM (inactive); in the test on LXFL 529, 19.3 µM (inactive); in the test on SNB-78, 17.7 µM (inactive); in the test on DMS-114 it was 17.2 µM (inactive); with DLD-1, 34.9 µM (inactive). Further, in the test on RXF 631, the GI50 was 23 µM (inactive).
Consider `CCOCC(=O)N[C@H]1CCc2cc(OC)c(OC)c(OC)c2-c2ccc(OC)c(=O)cc21`, for which the GI50 with DMS-273 was 0.0128 µM (active); in the test on KM-20L2, 0.0118 µM (active); with LXFL 529 it was 0.024 µM (active); with SNB-78 it was < 0.0147 µM (active); with DMS-114, 0.0148 µM (active); in the test with XF498 it was 0.0138 µM (active). Moreover, in the test with DLD-1, the GI50 was 0.019 µM (active).
As for `COc1ccc(C2NCCc3c2[nH]c2ccccc32)cc1` (stereo unspecified), the GI50 is > 100 µM (inactive) with KM-20L2; 95.3 µM (inactive) in the test with LXFL 529; 58.7 µM (inactive) with HOP-18; 28.1 µM (inactive) with XF498; > 100 µM (inactive) in the test on DLD-1; 67 µM (inactive) in the test on RXF 631.
For the molecule `CC(=O)O[C@]12CCCCCCC1C1(O)C(O)CCC[C@H]12` (stereo partly specified), the GI50 in the test on DMS-273, with KM-20L2, in the test on LXFL 529, in the test on SNB-78, with DMS-114 and in the test on HOP-18 was > 100 µM (inactive) each time. Besides, in the test on XF498, the GI50 is > 100 µM (inactive).
Take `CSc1nc2c(nc(N)n2C2OC(CO)C(O)C(O)C2O)c(=O)n1C` (stereo unspecified): the GI50 in the test with KM-20L2, with LXFL 529, in the test on SNB-78, in the test with DMS-114, with HOP-18 and with XF498 was > 100 µM (inactive) each time. For the same molecule, in the test with DLD-1, the GI50 is > 100 µM (inactive).
As to `CC(C)C1COC(C(C)(C)C2=N[C@@H](C(C)C)CO2)=N1` (stereo partly specified), the GI50 with DMS-273, in the test with KM-20L2, in the test with LXFL 529, in the test with DMS-114, in the test with HOP-18 and in the test on XF498 was > 100 µM (inactive) throughout. Also, the GI50 in the test with DLD-1 and in the test with RXF 631 was > 100 µM (inactive) throughout.
Consider `CC(=O)NC(CCCN)C(=O)NCc1ccccc1` (stereo unspecified), for which the GI50 in the test with DMS-273, in the test on KM-20L2, in the test with LXFL 529, in the test with SNB-78, in the test on DMS-114 and in the test with XF498 was > 100 µM (inactive) each time. In the test on DLD-1, the GI50 is > 100 µM (inactive).
For the molecule `O=C(Nc1c(-c2nc3ccccc3[nH]2)sc(=S)n1-c1ccccc1)c1ccccc1`, the GI50 was 91.8 µM (inactive) in the test on DMS-273; 58.9 µM (inactive) in the test on LXFL 529; 61.7 µM (inactive) with SNB-78; 98.9 µM (inactive) with DMS-114; > 100 µM (inactive) in the test with HOP-18; > 100 µM (inactive) with DLD-1. Further, the GI50 with RXF 631 was > 100 µM (inactive).
